Tests used:
wheat [1] = assay: Test A postemergence; type: in vivo, Triticum aestivum; settings: 0 to 100 scale (0 no effect, 100 complete control), approx. 10 d
Outline: (§1)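 Plant seeds in loam soil blended with sand, then apply test chemical preemergence as a directed soil spray; in parallel, spray potted seedlings (one- to two-leaf, 2 to 10 cm) postemergence. Both treatments use a non-phytotoxic solvent mixture with surfactant.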

foxtail, giant [2] = assay: Test A preemergence; type: in vivo, Setaria faberii; settings: 0 to 100 scale (0 no effect, 100 complete control)
Outline: as §1

crabgrass, large [3] = assay: Test A postemergence; type: in vivo, Digitaria sanguinalis; settings: 0 to 100 scale (0 no effect, 100 complete control), approx. 10 d
Outline: as §1

wheat [4] = assay: Test A preemergence; type: in vivo, Triticum aestivum; settings: 0 to 100 scale (0 no effect, 100 complete control)
Outline: as §1

velvetleaf [5] = assay: Test A postemergence; type: in vivo, Abutilon theophrasti; settings: 0 to 100 scale (0 no effect, 100 complete control), approx. 10 d
Outline: as §1

morningglory [6] = assay: Test A postemergence; type: in vivo, Ipomoea spp.; settings: 0 to 100 scale (0 no effect, 100 complete control), approx. 10 d
Outline: as §1

crabgrass, large [7] = assay: Test A preemergence; type: in vivo, Digitaria sanguinalis; settings: 0 to 100 scale (0 no effect, 100 complete control)
Outline: as §1

foxtail, giant [8] = assay: Test A postemergence; type: in vivo, Setaria faberii; settings: 0 to 100 scale (0 no effect, 100 complete control), approx. 10 d
Outline: as §1

pigweed [9] = assay: Test A postemergence; type: in vivo, Amaranthus retroflexus; settings: 0 to 100 scale (0 no effect, 100 complete control), approx. 10 d
Outline: as §1

ducksalad [10] = assay: Test B flooded paddy test; type: in vivo, Heteranthera limosa; settings: 125 g ai/ha, applied to paddy water at 2-leaf stage, visual rating after 13 to 15 d, scale 0 (no effect) to 100 (complete control)
Outline: (§2)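 Pots were flooded to 3 cm above the soil at treatment, and compounds were applied directly into the paddy water. That depth was held throughout. After 13 to 15 d in a greenhouse, plants were rated visually against untreated controls.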

barnyardgrass [11] = assay: Test B flooded paddy test; type: in vivo, Echinochloa crus-galli; settings: 125 g ai/ha, applied to paddy water at 2-leaf stage, visual rating after 13 to 15 d, scale 0 (no effect) to 100 (complete control)
Outline: as §2

pigweed [12] = assay: Test A preemergence; type: in vivo, Amaranthus retroflexus; settings: 0 to 100 scale (0 no effect, 100 complete control)
Outline: as §1

corn [13] = assay: Test A postemergence; type: in vivo, Zea mays; settings: 0 to 100 scale (0 no effect, 100 complete control), approx. 10 d
Outline: as §1

barnyardgrass [14] = assay: Test A postemergence; type: in vivo, Echinochloa crus-galli; settings: 0 to 100 scale (0 no effect, 100 complete control), approx. 10 d
Outline: as §1

barnyardgrass [15] = assay: Test A preemergence; type: in vivo, Echinochloa crus-galli; settings: 0 to 100 scale (0 no effect, 100 complete control)
Outline: as §1

rice [16] = assay: Test B flooded paddy test; type: in vivo, Oryza sativa; settings: 125 g ai/ha, applied to paddy water at 2-leaf stage, visual rating after 13 to 15 d, scale 0 (no effect) to 100 (complete control)
Outline: as §2

morningglory [17] = assay: Test A preemergence; type: in vivo, Ipomoea spp.; settings: 0 to 100 scale (0 no effect, 100 complete control)
Outline: as §1

velvetleaf [18] = assay: Test A preemergence; type: in vivo, Abutilon theophrasti; settings: 0 to 100 scale (0 no effect, 100 complete control)
Outline: as §1

corn [19] = assay: Test A preemergence; type: in vivo, Zea mays; settings: 0 to 100 scale (0 no effect, 100 complete control)
Outline: as §1

sedge, umbrella [20] = assay: Test B flooded paddy test; type: in vivo, Cyperus difformis; settings: 125 g ai/ha, applied to paddy water at 2-leaf stage, visual rating after 13 to 15 d, scale 0 (no effect) to 100 (complete control)
Outline: as §2

rice [21] = assay: Test C flooded paddy test; type: in vivo, Oryza sativa; settings: Flood, applied to paddy water, rating after 13 to 15 d
From the text: (§3) At time of treatment, test pots were flooded to 3 cm above the soil surface, treated by application of test compounds directly to the paddy water, and then maintained at that water depth for the duration of the test. Treated plants and controls were maintained in a greenhouse for 13 to 15 d, after which time all species were compared to controls and visually evaluated. […] A dash (-) response means no test result.

barnyardgrass [22] = assay: Test C flooded paddy test; type: in vivo, Echinochloa crus-galli; settings: Flood, applied to paddy water, rating after 13 to 15 d
From the text: as §3

sedge, umbrella [23] = assay: Test C flooded paddy test; type: in vivo, Cyperus difformis; settings: Flood, applied to paddy water, rating after 13 to 15 d
From the text: as §3

ducksalad [24] = assay: Test C flooded paddy test; type: in vivo, Heteranthera limosa; settings: Flood, applied to paddy water, rating after 13 to 15 d
From the text: as §3

SMILES: CCCn1nc(-c2ccc(F)cc2)nc1C(O)c1ccnc(C(F)(F)F)c1 (stereo not drawn) [Compound 16]
- Plant response rating, Wheat (wheat [1]; 125 g ai/ha): 10
- Plant response rating, Wheat (wheat [1]; 500 g ai/ha): 30
- Plant response rating, Foxtail, Giant (foxtail, giant [2]; 125 g ai/ha): 50
- Plant response rating, Foxtail, Giant (foxtail, giant [2]; 500 g ai/ha, approx. 10 d): 90
- Plant response rating, Crabgrass, Large (crabgrass, large [3]; 125 g ai/ha): 20
- Plant response rating, Crabgrass, Large (crabgrass, large [3]; 500 g ai/ha): 70
- Plant response rating, Wheat (wheat [4]; 125 g ai/ha): 0
- Plant response rating, Wheat (wheat [4]; 500 g ai/ha, approx. 10 d): 0
- Plant response rating, Velvetleaf (velvetleaf [5]; 125 g ai/ha): 0
- Plant response rating, Velvetleaf (velvetleaf [5]; 500 g ai/ha): 40
- Plant response rating, Morningglory (morningglory [6]; 125 g ai/ha): 40
- Plant response rating, Morningglory (morningglory [6]; 500 g ai/ha): 40
- Plant response rating, Crabgrass, Large (crabgrass, large [7]; 125 g ai/ha): 60
- Plant response rating, Crabgrass, Large (crabgrass, large [7]; 500 g ai/ha, approx. 10 d): 100
- Plant response rating, Foxtail, Giant (foxtail, giant [8]; 125 g ai/ha): 30
- Plant response rating, Foxtail, Giant (foxtail, giant [8]; 500 g ai/ha): 70
- Plant response rating, Pigweed (pigweed [9]; 125 g ai/ha): 100
- Plant response rating, Pigweed (pigweed [9]; 500 g ai/ha): 100
- Plant response rating, Ducksalad, Flood (ducksalad [10]): 0
- Plant response rating, Barnyardgrass, Flood (barnyardgrass [11]): 0
- Plant response rating, Pigweed (pigweed [12]; 125 g ai/ha): 80
- Plant response rating, Pigweed (pigweed [12]; 500 g ai/ha, approx. 10 d): 100
- Plant response rating, Corn (corn [13]; 125 g ai/ha): 10
- Plant response rating, Corn (corn [13]; 500 g ai/ha): 50
- Plant response rating, Barnyardgrass (barnyardgrass [14]; 125 g ai/ha): 0
- Plant response rating, Barnyardgrass (barnyardgrass [14]; 500 g ai/ha): 70
- Plant response rating, Barnyardgrass (barnyardgrass [15]; 125 g ai/ha): 0
- Plant response rating, Barnyardgrass (barnyardgrass [15]; 500 g ai/ha, approx. 10 d): 80
- Plant response rating, Rice, Flood (rice [16]): 0
- Plant response rating, Morningglory (morningglory [17]; 125 g ai/ha): 0
- Plant response rating, Morningglory (morningglory [17]; 500 g ai/ha, approx. 10 d): 20
- Plant response rating, Velvetleaf (velvetleaf [18]; 125 g ai/ha): 0
- Plant response rating, Velvetleaf (velvetleaf [18]; 500 g ai/ha, approx. 10 d): 20
- Plant response rating, Corn (corn [19]; 125 g ai/ha): 0
- Plant response rating, Corn (corn [19]; 500 g ai/ha, approx. 10 d): 0
- Plant response rating, Sedge, Umbrella, Flood (sedge, umbrella [20]): 0

SMILES: Cc1nc(-c2ccc(C(F)(F)F)cc2)nn1Cc1cccc(C(F)(F)F)c1 [Compound 3]
- Plant response rating, Wheat (wheat [1]; 125 g ai/ha): 0
- Plant response rating, Wheat (wheat [1]; 500 g ai/ha): 0
- Plant response rating, Foxtail, Giant (foxtail, giant [2]; 125 g ai/ha): 0
- Plant response rating, Foxtail, Giant (foxtail, giant [2]; 500 g ai/ha, approx. 10 d): 30
- Plant response rating, Crabgrass, Large (crabgrass, large [3]; 125 g ai/ha): 10
- Plant response rating, Crabgrass, Large (crabgrass, large [3]; 500 g ai/ha): 40
- Plant response rating, Wheat (wheat [4]; 125 g ai/ha): 0
- Plant response rating, Wheat (wheat [4]; 500 g ai/ha, approx. 10 d): 0
- Plant response rating, Velvetleaf (velvetleaf [5]; 125 g ai/ha): 10
- Plant response rating, Velvetleaf (velvetleaf [5]; 500 g ai/ha): 40
- Plant response rating, Morningglory (morningglory [6]; 125 g ai/ha): 40
- Plant response rating, Morningglory (morningglory [6]; 500 g ai/ha): 80
- Plant response rating, Crabgrass, Large (crabgrass, large [7]; 125 g ai/ha): 0
- Plant response rating, Crabgrass, Large (crabgrass, large [7]; 500 g ai/ha, approx. 10 d): 40
- Plant response rating, Foxtail, Giant (foxtail, giant [8]; 125 g ai/ha): 10
- Plant response rating, Foxtail, Giant (foxtail, giant [8]; 500 g ai/ha): 30
- Plant response rating, Pigweed (pigweed [9]; 125 g ai/ha): 60
- Plant response rating, Pigweed (pigweed [9]; 500 g ai/ha): 100
- Rice plant response rating (0 to 100) (rice [21]; 31 g ai/ha): 0
- Rice plant response rating (0 to 100) (rice [21]; 62 g ai/ha): 0
- Rice plant response rating (0 to 100) (rice [21]; 125 g ai/ha): 0
- Rice plant response rating (0 to 100) (rice [21]; 250 g ai/ha): 0
- Barnyardgrass plant response rating (0 to 100) (barnyardgrass [22]; 31 g ai/ha): 0
- Barnyardgrass plant response rating (0 to 100) (barnyardgrass [22]; 62 g ai/ha): 20
- Barnyardgrass plant response rating (0 to 100) (barnyardgrass [22]; 125 g ai/ha): 20
- Barnyardgrass plant response rating (0 to 100) (barnyardgrass [22]; 250 g ai/ha): 20
- Plant response rating, Pigweed (pigweed [12]; 125 g ai/ha): 10
- Plant response rating, Pigweed (pigweed [12]; 500 g ai/ha, approx. 10 d): 80
- Sedge, Umbrella plant response rating (0 to 100) (sedge, umbrella [23]; 31 g ai/ha): 0
- Sedge, Umbrella plant response rating (0 to 100) (sedge, umbrella [23]; 62 g ai/ha): 0
- Sedge, Umbrella plant response rating (0 to 100) (sedge, umbrella [23]; 125 g ai/ha): 40
- Sedge, Umbrella plant response rating (0 to 100) (sedge, umbrella [23]; 250 g ai/ha): 50
- Plant response rating, Corn (corn [13]; 125 g ai/ha): 10
- Plant response rating, Corn (corn [13]; 500 g ai/ha): 20
- Plant response rating, Barnyardgrass (barnyardgrass [14]; 125 g ai/ha): 0
- Plant response rating, Barnyardgrass (barnyardgrass [14]; 500 g ai/ha): 10
- Ducksalad plant response rating (0 to 100) (ducksalad [24]; 31 g ai/ha): 0
- Ducksalad plant response rating (0 to 100) (ducksalad [24]; 62 g ai/ha): 20
- Ducksalad plant response rating (0 to 100) (ducksalad [24]; 125 g ai/ha): 30
- Ducksalad plant response rating (0 to 100) (ducksalad [24]; 250 g ai/ha): 40
- Plant response rating, Barnyardgrass (barnyardgrass [15]; 125 g ai/ha): 0
- Plant response rating, Barnyardgrass (barnyardgrass [15]; 500 g ai/ha, approx. 10 d): 0
- Plant response rating, Morningglory (morningglory [17]; 125 g ai/ha): 0
- Plant response rating, Morningglory (morningglory [17]; 500 g ai/ha, approx. 10 d): 0
- Plant response rating, Velvetleaf (velvetleaf [18]; 125 g ai/ha): 0
- Plant response rating, Velvetleaf (velvetleaf [18]; 500 g ai/ha, approx. 10 d): 0
- Plant response rating, Corn (corn [19]; 125 g ai/ha): 0
- Plant response rating, Corn (corn [19]; 500 g ai/ha, approx. 10 d): 0
